According to patent US7550485B2, “Substituted N-heterocycle derivatives and methods of their use” (Wyeth, priority 2003, dated 2009):
Counter-ions that a name gives are not always drawn.

Target: T1, hNET (Homo sapiens, UniProt P23975)
T1 construct: expressed in transfected cells
Assay: Norepinephrine (NE) uptake assay in MDCK-Net6 cells stably transfected with human hNET
Format: cell-based
Settings: [3H]NE uptake; for inhibition at 1 µM: MDCK-Net6, 1 μM test compound; for EC50: test range 1 to 10,000 nM
Protocol: MDCK-Net6 cells, stably transfected with human hNET (Pacholczyk, T., R. D. Blakely, and S. G. Amara, Nature, 1991, 350(6316): p. 350-4) were cultured in growth medium containing high glucose DMEM (Gibco, Cat. No. 11995), 10% FBS (dialyzed, heat-inactivated, US Bio-Technologies, Lot FBD1129HI) and 500 μg/ml G418 (Gibco, Cat. No. 10131). Cells were plated at 300,000/T75 flask and cells were split twice weekly. The JAR cell line (human placental choriocarcinoma) was purchased from ATCC (Cat. No. HTB-144). The cells were cultured in growth medium containing RPMI 1640 (Gibco, Cat. No. 72400), 10% FBS (Irvine, Cat. No. 3000), 1% sodium pyruvate (Gibco, Cat. No. 1136) and 0.25% glucose. Cells were plated at 250,000 cells/T75 flask and split twice weekly. For all assays, cells were plated in Wallac 96-well sterile plates (PerkinElmer, Cat. No. 3983498).
Norepinephrine (NE) Uptake Assay
On day 1, cells were plated at 3,000 cells/well in growth medium and maintained in a cell incubator (37° C., 5% CO2). On day 2, growth medium was replaced with 200 μl of assay buffer (25 mM HEPES; 120 mM NaCl; 5 mM KCl; 2.5 mM CaCl2; 1.2 mM MgSO4; 2 mg/ml glucose (pH 7.4, 37° C.)) containing 0.2 mg/ml ascorbic acid and 10 μM pargyline. Plates containing cells with […] of assay buffer were equilibrated for 10 minutes at 37° C. prior to addition of compounds. A stock solution of desipramine was prepared in DMSO (10 mM) and delivered to triplicate wells containing cells for a final test concentration of 1 μM. Data from these wells were used to define non-specific NE uptake (minimum NE uptake). Test compounds were prepared in DMSO (10 mM) and diluted in assay buffer according to test range (1 to 10,000 nM). Twenty-five microliters of assay buffer (maximum NE uptake) or test compound were added directly to triplicate wells containing cells in 200 μl of assay buffer. The cells in assay buffer with test compounds were incubated for 20 minutes at 37° C. To initiate the NE uptake, [^3H]NE diluted in assay buffer (120 nM final assay concentration) was delivered in 25 μl aliquots to each well and the plates were incubated for 5 minutes (37° C.). The reaction was terminated by decanting the supernatant from the plate. The plates containing cells were washed twice with 200 μl assay buffer (37° C.) to remove free radioligand. The plates were then inverted, left to dry for 2 minutes, then reinverted and air-dried for an additional 10 minutes. The cells were lysed in 25 μl of 0.25 N NaOH solution (4° C.), placed on a shake table and vigorously shaken for 5 minutes. After cell lysis, 75 μl of scintillation cocktail was added to each well and the plates were sealed with film tape. The plates were returned to the shake table and vigorously shaken for a minimum of 10 minutes to ensure adequate partitioning of organic and aqueous solutions. The plates were counted in a Wallac Microbeta counter (PerkinElmer) to collect the raw cpm data.
For each experiment, a data stream of cpm values collected from the Wallac Microbeta counter was downloaded to a Microsoft Excel statistical application program. Calculations of EC50 values were made using the transformed-both-sides logistic dose response program written by Wyeth Biometrics Department. The statistical program uses mean cpm values from wells representing maximum binding or uptake (assay buffer) and mean cpm values from wells representing minimum binding or uptake ((1 μM desipramine (hNET) or 1 μM paroxetine (hSERT)). Estimation of the EC50 value was completed on a log scale and the line was fit between the maximum and minimum binding or uptake values. All graphic data representation was generated by normalizing each data point to a mean percent based on the maximum and minimum binding or uptake values. The EC50 values reported from multiple experiments were calculated by pooling the raw data from each experiment and analyzing the pooled data as one experiment.

T1 sequence (P23975 whole entry): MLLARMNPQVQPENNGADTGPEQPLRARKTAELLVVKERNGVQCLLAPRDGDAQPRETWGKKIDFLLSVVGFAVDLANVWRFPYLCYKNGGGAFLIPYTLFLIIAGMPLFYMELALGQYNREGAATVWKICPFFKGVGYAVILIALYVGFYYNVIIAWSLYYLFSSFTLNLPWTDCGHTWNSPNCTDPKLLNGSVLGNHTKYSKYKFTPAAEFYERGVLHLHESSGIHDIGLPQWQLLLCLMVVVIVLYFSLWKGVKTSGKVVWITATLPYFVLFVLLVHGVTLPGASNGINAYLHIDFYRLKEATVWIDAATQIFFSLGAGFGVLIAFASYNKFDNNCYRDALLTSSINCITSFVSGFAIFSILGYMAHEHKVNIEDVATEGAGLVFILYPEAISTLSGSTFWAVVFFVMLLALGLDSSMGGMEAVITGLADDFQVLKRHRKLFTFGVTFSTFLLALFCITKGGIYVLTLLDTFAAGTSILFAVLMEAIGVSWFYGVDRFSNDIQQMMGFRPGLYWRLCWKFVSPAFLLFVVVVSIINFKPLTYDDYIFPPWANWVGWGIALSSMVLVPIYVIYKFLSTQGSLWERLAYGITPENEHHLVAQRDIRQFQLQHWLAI

Row | inhibition at 1 µM [%] | EC50 [nM] | SMILES | also measured
1 | 31.9 | – | CN(C)[C@H]1CCN(CC(c2cccc(C(F)(F)F)c2)C2(O)CCCCC2)C1 (stereo partly drawn) [Example 222, 1-{2-[(3S)-3-(dimethylamino)pyrrolidin-1-yl]-1-[3-(trifluoromethyl)phenyl]ethyl}cyclohexanol dihydrochloride] | –
2 | 84.5 | – | N[C@H]1CCN(CC(c2ccc(OCc3ccccc3)cc2)C2(O)CCCCC2)C1 (stereo partly drawn) [Example 213, 1-{2-[(3S)-3-aminopyrrolidin-1-yl]-1-[4 (benzyloxy)phenyl]ethyl}cyclohexanol dihydrochloride] | –
3 | 57 | 130 | CN(C)C1CCN(CC(c2cccc(Cl)c2)C2(O)CCCCC2)CC1 (centres unmarked) [Example 36, 1-{1-(3-chlorophenyl)-2-[4-(dimethylamino)piperidin-1-yl]ethyl}cyclohexanol dihydrochloride] | –

Second part, the molecule before the results:

Row | SMILES | inhibition at 1 µM [%] | EC50 [nM] | also measured
4 | CCCC(O)(CCC)C(CN1CCC(N)CC1)c1cccc(Cl)c1 (centres unmarked) [Example 282, 4-[2-(4-aminopiperidin-1-yl)-1-(3-chlorophenyl)ethyl]heptan-4-ol dihydrochloride] | – | – | inhibition at 10 µM (MDCK-Net6, 10 μM test compound (stated in cell)): 4.1%
5 | NC1CCN(CC(c2ccc(Oc3ccccc3)cc2)C2(O)CCCCC2)CC1 (centres unmarked) [Example 310, 1-{2-(4-aminopiperidin-1-yl)-1-(4-phenoxyphenyl)ethyl]cyclohexanol dihydrochloride] | 44.1 | – | –
6 | CN[C@@H]1CCN(CC(c2cccc3ccccc23)C2(O)CCCCC2)C1 (stereo partly drawn) [Example 379, 1-[2-[(3R)-3-(methylamino)pyrrolidin-1-yl]-1-(1-naphthyl)ethyl]cyclohexanol dihydrochloride] | 19 | – | –
7 | N[C@H]1CCN(CC(c2cccc(Cl)c2)C2(O)CCCCC2)C1 (stereo partly drawn) [Example 16, 1-[2-[(3S)-3-aminopyrrolidin-1-yl]-1-(3-chlorophenyl)ethyl]cyclohexanol dihydrochloride] | 89 | 120 | –
8 | COC1CCN(CC(c2ccc(OCc3ccccc3)c(Cl)c2)C2(O)CCCCC2)CC1 (centres unmarked) [Example 339, 1-[1-[4-(benzyloxy)-3-chlorophenyl]-2-(4-methoxypiperidin-1-yl)ethyl]cyclohexanol hydrochloride] | – | – | inhibition at 30 µM (MDCK-Net6, 30 μM test compound (stated in cell)): 94%
9 | NC1CCN(CC(c2ccc(OCc3ccccc3)c(Cl)c2)C2(O)CCCCC2)CC1 (centres unmarked) [Example 428, 1-{2-(4-aminopiperidin-1-yl)-1-[4-(benzyloxy)-3-chlorophenyl]ethyl}cyclohexanol dihydrochloride] | 92 | 110 | –
10 | CN(C)C1CCN(CC(c2cccc(Cl)c2)C2CCCCCC2)CC1 (centres unmarked) [Example 237, 1-[2-(3-chlorophenyl)-2-cycloheptylethyl]-N,N-dimethylpiperidin-4-amine dihydrochloride] | 81.9 | – | –
11 | NC1CCN(CC(c2ccc(Cl)c(Cl)c2)C2(O)CCCCC2)CC1 (centres unmarked) [Example 14, 1-[2-(4-aminopiperidin-1-yl)-1-(3,4-dichlorophenyl)ethyl]cyclohexanol dihydrochloride] | 84 | 89 | –
12 | CNC1CCN(CC(c2cccc(Cl)c2)C2(O)CCCCC2)CC1 (centres unmarked) [Example 17, 1-{1-(3-chlorophenyl)-2-[4-(methylamino)piperidin-1-yl]ethyl}cyclohexanol dihydrochloride] | 88 | 91 | –
13 | COc1cc(C(CN2CCC(N)CC2)C2(O)CCCCC2)ccc1OCc1ccccc1 (centres unmarked) [Example 450, 1-{2-(4-aminopiperidin-1-yl)-1-[4-(benzyloxy)-3-methoxyphenyl]ethyl}cyclohexanol dihydrochloride] | 79 | – | –
14 | CNC1CCN(CC(c2ccc3cc(OC)ccc3c2)C2(O)CCCCC2)CC1 (centres unmarked) [Example 344, 1-{1-(6-methoxy-2-naphthyl)-2-[4-(methylamino)piperidin-1-yl]ethyl}cyclohexanol dihydrochloride] | 52 | – | –
15 | OC1(C(CN2CCC(N3CCCCC3)CC2)c2cccc(Oc3ccccc3)c2)CCCCC1 (centres unmarked) [Example 314, 1-[2-(1,4′-bipiperidin-1′-yl)-1-[3-(phenoxyphenyl)ethyl]cyclohexanoldihydrochloride] | 95.5 | – | –
